Measurements reported in patent US20120021044A1, “Novel Cationic Lipid, A Preparation Method of the Same and A Delivery System Comprising the Same” (SNU R&DB FOUNDATION, priority 2007, published 2012).

System: Bcl2 transcript in SiHa cells
Assay: Bcl2 transcript expression by RT-PCR after delivery of Bcl2 antisense oligonucleotide into SiHa cells
Type: cell-based, human
Conditions: Bcl2 antisense oligonucleotide 100 nM, 24 hours, FIG. 8
Experimental: On the day prior to the experiment, SiHa cells were seeded on 24-well plates at a density of 8×10^4 cells/well. […] The antisense oligonucleotide to induce the inhibition of expression of the Bcl2 gene (Genbank accession number: […] These materials were slowly pipetted, mixed and allowed to stand at room temperature for 20 min, thus resulting in formation of complexes. The thus-prepared complexes were added to the well plates, followed by cell culture in a CO2 incubator at 37° C. for 24 hours. After 24 hours, total RNA was isolated from the cultured cells using a Trizol reagent (Invitrogen, Carlsbad, Calif., USA) and then reverse-transcribed into cDNA using AccuPower RT PreMix (Bioneer, Daejeon, Korea). […] An expression level of the Bcl2 transcript was assayed by determining quantitative changes of the gene expression through normalization of a band density of the Bcl2-specific PCR product against a band density occurring by amplification of the GAPDH (glyceraldehyde-3-phosphate dehydrogenase) gene.

## antisense oligonucleotide-alone: Bcl2 antisense oligonucleotide 5'-TCT CCC AGC GTG CGC CAT-3' (Bioneer), given without delivery system (antisense TCTCCCAGCGTGCGCCAT; chemistry not given here)
  amount of the Bcl2 transcript (RT-PCR, normalized against GAPDH): no changes in an amount of the Bcl2 transcript
